Columns and labels:
MHCC97H [1] = assay: In vivo-antitumor activity against human MHCC97H cells xenografted BALB/c mouse model assessed as tumor growth inhibitor at 5 mg/kg, IG once daily measured after 31 days relative to control; conditions: po, 744 h, read-out: TGI
in vivo [2] = conditions: BALB/c, mouse, iv, 1.2 mg/kg
Description: Tmax in BALB/c mouse at 1.2 mg/kg, iv measured upto 24 hrs by LC-MS/MS analysis

HT-29 = assay: cells; conditions: Homo sapiens, HT-29, 72 h
Description: Anti-tumor activity against human HT-29 cells assessed as inhibition of cell growth measured after 72 hrs by CCK-8 assay

[3] = Half life in BALB/c mouse at 10 mg/kg, po measured upto 24 hrs by LC-MS/MS analysis; conditions: in vivo
H4 = assay: cells; conditions: Homo sapiens, H4, 72 h
Description: Anti-tumor activity against human H4 cells assessed as inhibition of cell growth measured after 72 hrs by CCK-8 assay

in vivo [4] = conditions: BALB/c, mouse, po, 10 mg/kg
Description: Cmax in BALB/c mouse at 10 mg/kg, po measured upto 24 hrs by LC-MS/MS analysis

PLC-PRF-5 = assay: cells; conditions: Homo sapiens, PLC-PRF-5, 72 h
Description: Antitumor activity against human PLC-PRF-5 cells assessed as inhibition of cell proliferation measured after 72 hrs by CCK-8 assay

MHCC97H [5] = assay: Cytotoxicity against (shRNA)-mediated B3GAT3 KO human MHCC97H cells assessed as cell viability measured after 72 hrs by CCK8 assay
[6] = Clearance in BALB/c mouse at 10 mg/kg, po measured upto 24 hrs by LC-MS/MS analysis; conditions: in vivo
MHCC97H [7] = assay: Cytotoxicity against (shRNA)-Ctrl transfected human MHCC97H cells assessed as cell viability measured after 72 hrs by CCK8 assay
HCCLM3 [8] = assay: cells; conditions: Homo sapiens, HCCLM3, 72 h
Description: Antitumor activity against human HCCLM3 cells assessed as inhibition of cell proliferation measured after 72 hrs by CCK-8 assay

AGS = assay: cells; conditions: Homo sapiens, 72 h
Description: Anti-tumor activity against human AGS cells assessed as inhibition of cell growth measured after 72 hrs by CCK-8 assay

in vivo [9] = conditions: BALB/c, mouse, po, 10 mg/kg; remark: listed apart in the source
Description: AUC in BALB/c mouse at 10 mg/kg, po measured upto 24 hrs by LC-MS/MS analysis

MEG-01 = assay: cells; conditions: Homo sapiens, MEG-01, 72 h
Description: Anti-tumor activity against human MEG-01 cells assessed as inhibition of cell growth measured after 72 hrs by CCK-8 assay

in vivo [10] = conditions: BALB/c, mouse, po, 10 mg/kg; remark: listed apart in the source
Description: Tmax in BALB/c mouse at 10 mg/kg, po measured upto 24 hrs by LC-MS/MS analysis

MHCC97H [11] = assay: cells; conditions: Homo sapiens, 72 h
Description: Antitumor activity against human MHCC97H cells assessed as inhibition of cell growth measured after 72 hrs by CCK-8 assay

[12] = target: T1, Galactosylgalactosylxylosylprotein 3-beta-glucuronosyltransferase 3 (Homo sapiens, UniProt O94766); assay: Binding affinity to CM5 sensor chip immobilized human B3GAT3 assessed as dissociation constant by SPR analysis
T1 sequence (O94766 whole entry): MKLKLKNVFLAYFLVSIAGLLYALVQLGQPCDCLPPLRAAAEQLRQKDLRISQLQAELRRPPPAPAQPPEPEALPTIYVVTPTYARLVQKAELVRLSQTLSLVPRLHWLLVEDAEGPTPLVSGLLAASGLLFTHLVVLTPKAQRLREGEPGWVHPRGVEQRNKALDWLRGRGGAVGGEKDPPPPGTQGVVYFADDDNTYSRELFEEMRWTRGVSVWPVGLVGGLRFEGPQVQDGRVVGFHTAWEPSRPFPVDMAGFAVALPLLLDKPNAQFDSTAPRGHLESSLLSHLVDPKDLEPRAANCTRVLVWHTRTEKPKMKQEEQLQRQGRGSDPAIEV

[13] = Half life in BALB/c mouse at 1.2 mg/kg, iv measured upto 24 hrs by LC-MS/MS analysis; conditions: in vivo
HCCLM3 [14] = assay: In vivo-antitumor activity against human HCCLM3 cells xenografted BALB/c mouse model assessed as tumor growth inhibitor at 10 mg/kg, IG once daily measured after 31 days relative to control; conditions: HCCLM3, po, 744 h, read-out: TGI
MDA-MB-231 = assay: cells; conditions: Homo sapiens, MDA-MB-231, 72 h
Description: Anti-tumor activity against human MDA-M8-231 cells assessed as inhibition of cell growth measured after 72 hrs by CCK-8 assay

Hepa 1-6 = assay: cells; conditions: Mus musculus, Hepa1-6, 72 h
Description: Antitumor activity against mouse Hepa1-6 cells assessed as inhibition of cell proliferation measured after 72 hrs by CCK-8 assay

in vitro [15] = conditions: mouse, liver microsomes
Description: Metabolic stability in mouse liver microsomes assessed as half life at 0.02 uM measured upto 60 mins by LC-MS/MS analysis

MHCC97H [16] = assay: cells; conditions: Homo sapiens, 72 h; remark: listed apart in the source
Description: Antitumor activity against human MHCC97H cells assessed as inhibition of cell proliferation measured after 72 hrs by CCK-8 assay

in vitro [17] = conditions: rat, liver microsomes
Description: Metabolic stability in rat liver microsomes assessed as half life at 0.02 uM measured upto 60 mins by LC-MS/MS analysis

MHCC97H [18] = assay: In vivo-antitumor activity against human MHCC97H cells xenografted BALB/c mouse model assessed as tumor growth inhibitor at 20 mg/kg, IG once daily measured after 31 days relative to control; conditions: po, 744 h, read-out: TGI
PC-3 = assay: cells; conditions: Homo sapiens, PC-3, 72 h
Description: Anti-tumor activity against human PC-3 cells assessed as inhibition of cell growth measured after 72 hrs by CCK-8 assay

SNU-387 = assay: cells; conditions: Homo sapiens, SNU-387, 72 h
Description: Antitumor activity against human SNU-387 cells assessed as inhibition of cell proliferation measured after 72 hrs by CCK-8 assay

SW-620 = assay: cells; conditions: Homo sapiens, SW-620, 72 h
Description: Anti-tumor activity against human SW620 cells assessed as inhibition of cell growth measured after 72 hrs by CCK-8 assay

U-251 = assay: cells; conditions: Homo sapiens, U-251, 72 h
Description: Anti-tumor activity against human U-251MG cells assessed as inhibition of cell growth measured after 72 hrs by CCK-8 assay

NCI-H1650 = assay: cells; conditions: Homo sapiens, NCI-H1650, 72 h
Description: Anti-tumor activity against human NCI-H1650 cells assessed as inhibition of cell growth measured after 72 hrs by CCK-8 assay

Calu-3 = assay: cells; conditions: Homo sapiens, Calu-3, 72 h
Description: Anti-tumor activity against human Calu-3 cells assessed as inhibition of cell growth measured after 72 hrs by CCK-8 assay

in vivo [19] = conditions: BALB/c, mouse, iv, 1.2 mg/kg; remark: listed apart in the source
Description: AUC in BALB/c mouse at 1.2 mg/kg, iv measured upto 24 hrs by LC-MS/MS analysis

Hep 3B2 = assay: cells; conditions: Homo sapiens, Hep3B, 72 h
Description: Antitumor activity against human Hep3B cells assessed as inhibition of cell proliferation measured after 72 hrs by CCK-8 assay

[20] = target: T1, Galactosylgalactosylxylosylprotein 3-beta-glucuronosyltransferase 3; assay: Binding affinity to biotinylated B3GAT3 (unknown origin) assessed as dissociation constant by biolayer interferometry (BLI) analysis
in vitro [21] = conditions: human, liver microsomes
Description: Metabolic stability in human liver microsomes assessed as half life at 0.02 uM measured upto 60 mins by LC-MS/MS analysis

K562 = assay: cells; conditions: Homo sapiens, K562, 72 h
Description: Anti-tumor activity against human K562 cells assessed as inhibition of cell growth measured after 72 hrs by CCK-8 assay

HCC1937 = assay: cells; conditions: Homo sapiens, HCC1937, 72 h
Description: Anti-tumor activity against human HCC1937 cells assessed as inhibition of cell growth measured after 72 hrs by CCK-8 assay

U-937 = assay: cells; conditions: Homo sapiens, U-937, 72 h
Description: Anti-tumor activity against human U-937 cells assessed as inhibition of cell growth measured after 72 hrs by CCK-8 assay

THP-1 = assay: cells; conditions: Homo sapiens, THP-1, 72 h
Description: Anti-tumor activity against human THP-1 cells assessed as inhibition of cell growth measured after 72 hrs by CCK-8 assay

NCI-H446 = assay: cells; conditions: Homo sapiens, NCI-H446, 72 h
Description: Anti-tumor activity against human NCI-H446 cells assessed as inhibition of cell growth measured after 72 hrs by CCK-8 assay

[22] = Clearance in BALB/c mouse at 1.2 mg/kg, iv measured upto 24 hrs by LC-MS/MS analysis; conditions: in vivo
HCCLM3 [23] = assay: cells; conditions: Homo sapiens, HCCLM3, 72 h; remark: listed apart in the source
Description: Antitumor activity against human HCCLM3 cells assessed as inhibition of cell growth measured after 72 hrs by CCK-8 assay

HCCLM3 [24] = assay: In vivo-antitumor activity against human HCCLM3 cells xenografted BALB/c mouse model assessed as reduction in tumor weight at 5 mg/kg, IG once daily measured after 31 days relative to control; conditions: HCCLM3, po, 744 h, read-out: INH
Jurkat = assay: cells; conditions: Homo sapiens, 72 h
Description: Anti-tumor activity against human Jurkat cells assessed as inhibition of cell growth measured after 72 hrs by CCK-8 assay

in vivo [25] = conditions: BALB/c, mouse, iv, 1.2 mg/kg; remark: listed apart in the source
Description: Cmax in BALB/c mouse at 1.2 mg/kg, iv measured upto 24 hrs by LC-MS/MS analysis

in vivo [26] = conditions: BALB/c, mouse, po, 10 mg/kg; remark: listed apart in the source
Description: Oral bioavailability in BALB/c mouse at 10 mg/kg measured upto 24 hrs by LC-MS/MS analysis

MHCC97H [27] = assay: In vivo-antitumor activity against human MHCC97H cells xenografted BALB/c mouse model assessed as tumor growth inhibitor at 10 mg/kg, IG once daily measured after 31 days relative to control; conditions: po, 744 h, read-out: TGI
THLE-2 = assay: cells; conditions: Homo sapiens, THLE-2, 72 h
Description: Antitumor activity against human THLE-2 cells assessed as inhibition of cell proliferation measured after 72 hrs by CCK-8 assay

SK-OV-3 = assay: cells; conditions: Homo sapiens, SK-OV-3, 72 h
Description: Anti-tumor activity against human SK-OV-3 cells assessed as inhibition of cell growth measured after 72 hrs by CCK-8 assay

MKN-45 = assay: cells; conditions: Homo sapiens, MKN-45, 72 h
Description: Anti-tumor activity against human MKN-45 cells assessed as inhibition of cell growth measured after 72 hrs by CCK-8 assay

Huh-7 = assay: cells; conditions: Homo sapiens, Huh-7, 72 h
Description: Antitumor activity against human Huh-7 cells assessed as inhibition of cell proliferation measured after 72 hrs by CCK-8 assay

## COC(=O)c1ccc2[nH]cc(C(=O)C(=O)NC3CCN(c4ccc(C)cc4Cl)C3=O)c2c1 (stereo unspecified)
MHCC97H [1]
  inhibition in vivo at 5 mg/kg: 23.4%
In vivo [2]
  Tmax at 24 h: 4.8 min
HT-29
  IC50: 4.71 µM
[3]
  half-life at 24 h: 251 min
H4
  IC50: 6.65 µM
In vivo [4]
  Cmax at 24 h: 9140 ng/mL
PLC-PRF-5
  IC50: 6.52 µM
MHCC97H [5]
  IC50: 17 µM
[6]
  CL/F at 24 h: 20 mL/min/kg
MHCC97H [7]
  IC50: 6.92 µM
HCCLM3 [8]
  IC50: 18.4 µM
AGS
  IC50: 5.33 µM
In vivo [9]
  AUC at 24 h: 9520 ng·h/mL
MEG-01
  IC50: 11.5 µM
In vivo [10]
  Tmax at 24 h: 13.2 min
MHCC97H [11]
  IC50: 6.53 µM
[12]
  Kd: 3.96 µM
[13]
  half-life at 24 h: 46.2 min
HCCLM3 [14]
  inhibition in vivo at 10 mg/kg: 59%
MDA-MB-231
  IC50: 12.3 µM
Hepa 1-6
  IC50: 6.22 µM
In vitro [15]
  half-life at 1 h, 0.02 µM: 37.9 min
MHCC97H [16]
  IC50: 18.9 µM
In vitro [17]
  half-life at 1 h, 0.02 µM: 25.9 min
MHCC97H [18]
  inhibition in vivo at 20 mg/kg: 73.5%
PC-3
  IC50: 13.7 µM
SNU-387
  IC50: 11.7 µM
SW-620
  IC50: 8.66 µM
U-251
  IC50: 6.16 µM
NCI-H1650
  IC50: 21.6 µM
Calu-3
  IC50: 41.6 µM
In vivo [19]
  AUC at 24 h: 1850 ng·h/mL
Hep 3B2
  IC50: 12.2 µM
[20]
  Kd: 6.62 µM
In vitro [21]
  half-life at 1 h, 0.02 µM: 17 min
K562
  IC50: 8.25 µM
HCC1937
  IC50: 47.9 µM
U-937
  IC50: 5.99 µM
THP-1
  IC50: 23.9 µM
NCI-H446
  IC50: 11.6 µM
[22]
  clearance at 24 h: 10 mL/min/kg
HCCLM3 [23]
  IC50: 6.22 µM
HCCLM3 [24]
  inhibition in vivo at 5 mg/kg: 58.8%
Jurkat
  IC50: 6.69 µM
In vivo [25]
  Cmax at 24 h: 3350 ng/mL
In vivo [26]
  bioavailability at 24 h: 66.4%
MHCC97H [27]
  inhibition in vivo at 10 mg/kg: 70%
THLE-2
  IC50: > 20 µM
SK-OV-3
  IC50: 98.7 µM
MKN-45
  IC50: 13.9 µM
Huh-7
  IC50: 12.5 µM

From ChEMBL document CHEMBL5500417, “Discovery of Novel 2-Oxoacetamide Derivatives as B3GAT3 Inhibitors for the Treatment of Hepatocellular Carcinoma” (J Med Chem, 2024)
